Experimental data reported in patent US6265433A, “LTA4 hydrolase inhibitors” (G. D. Searle & Company, priority 1999, dated 2001).

Columns and labels:
[1] = test system: LTB4 production in calcium ionophore stimulated human blood; experiment: Inhibition of calcium ionophore-induced LTB4 production in human blood (human whole blood assay); format: cell-based; conditions: human blood diluted 1:4; 15 minutes preincubation at 37° C.; calcium ionophore 20 mcg/ml, 10 minutes
From the text: (§1) One or more of three different assays, (1) an in vitro LTA hydrolase enzyme assay, (2) a human whole blood assay utilizing calcium ionophore stimulation, and (3) a murine ex vivo assay utilizing calcium ionophore stimulation were employed to determine the level of LTA hydrolase inhibitor activity.
LTB4 and Thromboxane Production by Calcium Ionophore Stimulated Human Blood for LTB4 Hydrolase Inhibitor Activity
One or more concentrations of the leukotriene A4 hydrolase inhibitor compounds being tested were prepared (diluted in DMSO) and 2 μl added and gently mixed with the diluted whole blood. After incubating for 15 minutes at 37° C. in a humidified incubator, calcium ionophore […] (Sigma Chemical Co., St. Louis, Mo.) was added to a final concentration of 20 mcg/ml and the incubation continued under the same conditions for an additional 10 minutes to allow LTB4 formation. The reaction was terminated by centrifugation (833 g, 10 minutes at 4° C.) and supernatant were analyzed for LTB4 and thromboxane by commercially available enzyme-linked immunoassays (Caymen Chemical Co., Ann Arbor, Mich.) according to the manufacturer's instructions. The IC50 of each test compound was determined from the amount of inhibition of LTB4 production as compared to an essentially identical assay in which no inhibitor compound was present.

[2] = test system: LTB4 production in calcium ionophore stimulated mouse blood; experiment: Murine ex vivo LTB4 inhibition, calcium ionophore stimulated mouse blood after oral gavage; format: in vivo, mouse (adult male outbred mice); conditions: 1 h, blood collected 60 minutes after administration, ionophore A23187 20 mcg/ml, read-out: Murine Ex Vivo LTB4 Inhibition, % I LTB4 at 1 hour after administration of 10 mg/kg
From the text: as §1
Ex Vivo LTB4 and Thromboxane Production by Calcium lonophore Stimulated Mouse Blood for […] Inhibitor Activity
Leukotriene A4 hydrolase inhibitor compounds of the present invention were diluted to a predetermined concentration in phosphate buffered saline containing 2% DMSO and 1% Tween 80. The compounds were administered by oral gavage to adult male outbred mice weighing approximately 20-30 gm at a dose of 10 mg/kg body weight. (Compounds given at a dose of 50 mg/kg body weight are designated in following Table by the symbol, *) Sixty (60) minutes after administration of an LTA4 inhibitor compound of the invention, blood was collected (into heparin-containing tubes) from the retroorbital sinus. […] The mixture was incubated for 10 minutes at 37° C. in a humidified incubator. The reaction was terminated by centrifugation (833 g. 10 minutes at 4° C.). Supernatant were analyzed for LTB4 and thromboxane by commercially available enzyme-linked immunoassays [Caymen Chemical Co., Ann Arbor, Mich.] in accordance with the manufacturer's instructions. The percent inhibition was determined by comparison to animals treated identically except that the solution administered by oral gavage was devoid of inhibitor compound.

[3] = molecular target: T1, Recombinant Human LTA4 Hydrolase (Homo sapiens, UniProt P09960); experiment: Recombinant Human LTA Hydrolase Assay (in vitro LTA hydrolase enzyme assay); format: biochemical; conditions: 250 ng rhLTA4 hydrolase; 10 minutes preincubation and 10 minutes reaction at room temperature; pH 7.4
T1 construct: made in house; host or cells: Spodoptera frugiperda Sf-9 cells (baculovirus)
T1 sequence (P09960 1-611): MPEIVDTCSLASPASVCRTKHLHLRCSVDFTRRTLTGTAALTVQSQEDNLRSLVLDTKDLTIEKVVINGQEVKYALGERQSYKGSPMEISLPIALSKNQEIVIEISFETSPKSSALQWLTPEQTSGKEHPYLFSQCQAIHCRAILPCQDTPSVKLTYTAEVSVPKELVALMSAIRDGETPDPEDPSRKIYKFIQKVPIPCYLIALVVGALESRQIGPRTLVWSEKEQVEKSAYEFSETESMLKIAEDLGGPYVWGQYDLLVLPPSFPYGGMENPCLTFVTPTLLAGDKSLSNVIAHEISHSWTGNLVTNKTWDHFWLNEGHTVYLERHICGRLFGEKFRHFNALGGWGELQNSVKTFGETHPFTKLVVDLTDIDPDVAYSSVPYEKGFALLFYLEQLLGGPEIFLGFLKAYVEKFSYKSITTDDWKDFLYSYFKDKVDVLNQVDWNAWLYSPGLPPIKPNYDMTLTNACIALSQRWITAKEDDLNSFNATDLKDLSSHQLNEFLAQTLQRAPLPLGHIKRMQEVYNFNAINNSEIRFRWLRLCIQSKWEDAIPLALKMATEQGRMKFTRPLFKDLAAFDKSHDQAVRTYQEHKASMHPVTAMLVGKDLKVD
Experimental: as §1
Recombinant Human LTA Hydrolase Assay for LTA Hydrolase Inhibitor Activity
Compounds of the present invention were tested for LTA hydrolase inhibitor activity against recombinant human LTA hydrolase (rhLTAH). […] Briefly, LTA hydrolase encoding DNA was amplified by polymerase chain reaction using a pair of oligonucleotide primers based on the nucleotide sequence from the 5'-end, and the complement of the 3'-end, of the coding region of the LTA hydrolase gene, the nucleotide sequence of which gene is known. […] A λgt11 human placental cDNA library (Clonetech, Palo Alto, Calif.) provided the nucleic acid template.
One or more predetermined amounts of a compound of the invention were incubated in assay buffer (0.1 M potassium phosphate, 5 mg/ml fatty acid free BSA, 10% DMSO, Ph 7.4) for 10 minutes at room temperature with 250 ng of recombinant hLTA4 H to allow binding, if any, between the enzyme and inhibitor. The stock enzyme solution was 1 mg/m. LTA4 hydrolase, 50 Mm Tris, Ph 8.0, 150 Mm NaCl, 2.5 Mm beta-mercaptoethanol, 50% glycerol. The specific activity of the enzyme was about 650 Nmoles/min/mg. LTA4 (i.e., substrate) was prepared from the methyl ester of LTA4 (Biomol, Inc., Plymouth Meeting, Pa.) by treating the methyl ester with 30 molar equivalents of LiOH at room temperature for 18 hours. The LTA4 substrate in its free acid form was kept frozen at -80° C. until needed. LTA4 (free acid) was thawed and diluted in assay buffer (minus DMSO) to a concentration of 350 ng/ml and 25 μl (8ng) of LTA4 substrate was added to the reaction mixture (total volume of reaction mixture=200 μl at time zero. Each reaction was carried out at room temperature for 10 minutes. The reaction was stopped by diluting 25 μl of the reaction mixture with 500 μl of the assay buffer without DMSO. […] was quantified in the diluted sample by a commercially available enzyme-linked immunoassay [Caymen Chemical Col. Ann Arbor, Mich.] using the method recommended in the manufacturer's instructions and compared to the amount of […] produced in a negative control (i.e., essentially identical conditions except without addition of an inhibitor compound). The IC50 was routinely calculated from the data produced.

[4] = test system: LTA4 hydrolase; conditions: background statement; cited from earlier work

Structure (SMILES) | IC50 [1] [µM] | inhibition at 10 mg/kg [2] [%] | IC50 [3] [µM] | LTA4 hydrolase inhibitory activity [4]
O=C(O)C1CCN(CCOc2ccc(Oc3ccc(-c4ccccc4)cc3)cc2)CC1 [Example 12] | 0.22 | 87 | – | –
CCN(CCCOc1ccc(Oc2ccc(-c3ncco3)cc2)cc1)CCC(=O)O [Example 19] | 0.24 | 93 | 0.34 | –
COC(=O)CCN(C)CCCOc1ccc(Oc2ccc(-c3ccccc3)cc2)cc1 [Example 13] | 0.79 | 63 | 0.55 | –
CN(CCCOc1ccc(Oc2ccc(-c3ccccc3)cc2)cc1)CCC(=O)O [Example 14] | 0.19 | 78 | – | –
CCOC(=O)C1CCN(CCOc2ccc(Oc3ccc(-c4ccccc4)cc3)cc2)CC1 [Example 11] | 0.72 | 90 | 0.34 | –
CN(CCCOc1ccc(Oc2ccc(-c3nccs3)cc2)cc1)CCC(=O)O [Example 17] | 0.072 | 87 | 0.95 | –
c1cc(Oc2ccc(C3=NCCO3)cc2)ccc1OCCN1CCCC1 [Example 10] | 0.55 | 83 | 0.59 | –
c1coc(-c2ccc(Oc3ccc(OCCN4CCCC4)cc3)cc2)n1 [Example 7] | 0.55 | 93 | – | –
CN(CCCOc1ccc(Oc2ccc(-c3ncco3)cc2)cc1)CCC(=O)O [Example 18] | 0.19 | 94 | 0.027 | –
c1ccc(-c2ccc(Oc3ccc(OCCN4CCCC4)cc3)cc2)cc1 [Example 8] | 0.14 | 57 | 0.0066 | –
C[C@H](CS)C(=O)N1CCC[C@H]1C(=O)O [captopril] | – | – | – | exhibit LTA4 hydrolase inhibitory activity
CC(C)C[C@H](NC(=O)[C@@H](O)[C@H](N)Cc1ccccc1)C(=O)O [bestatin] | – | – | – | exhibit LTA4 hydrolase inhibitory activity
